Laboratory results taken from ChEMBL document CHEMBL1157255, “Flavan-4-ol Glycosides from the Rhizomes of Abacopteris penangiana” (J Nat Prod, 2006).
≈ marks a conversion by molar mass, not a printed value.

Tested on: HepG2
Assay: Cytotoxicity against human HepG2 cells by MTT assay
Assay type: functional, cell-based

Row | Structure (SMILES) | IC50 [µg/mL]
1 | COc1ccc([C@@H]2C[C@@H]3O[C@H]4[C@H](Oc5c(C)c(O)c(C)c(c53)O2)O[C@H](CO)[C@@H](O)[C@@H]4OC(C)=O)cc1 | 4.1 (≈ 8.16 µM)
2 | O=c1[nH]cc(F)c(=O)[nH]1 [FLUOROURACIL] | 1.3 (≈ 9.99 µM)
3 | COc1ccc([C@@H]2C[C@@H]3O[C@H]4[C@H](Oc5c(C)c(O)c(C)c(c53)O2)O[C@H](COC(C)=O)[C@@H](O)[C@@H]4O)cc1 | 3.5 (≈ 6.96 µM)
4 | COc1ccc([C@@H]2C[C@@H]3O[C@H]4[C@H](Oc5c(C)c(O)c(C)c(c53)O2)O[C@H](CO)[C@@H](O)[C@@H]4O)cc1 [ABACOPTERIN C] | 4 (≈ 8.69 µM)
5 | COc1ccc([C@@H]2C[C@@H](O)c3c(c(C)c4c(c3O[C@@H]3O[C@H](CO)[C@@H](O)[C@H](O)[C@H]3O)CO[C@H]3[C@H](O4)O[C@H](CO)[C@@H](O)[C@@H]3O)O2)cc1 | 3.1 (≈ 4.85 µM)
6 | COc1ccc([C@@H]2C[C@@H](O)c3c(c(C)c(O[C@@H]4O[C@H](CO)[C@@H](O)[C@H](O)[C@H]4O)c(CO)c3O[C@@H]3O[C@H](CO)[C@@H](O)[C@H](O)[C@H]3O)O2)cc1 [TRIPHYLLIN A] | 5.7 (≈ 8.68 µM)
